Test results: ChEMBL document CHEMBL4725294, “Centrally Active Multitarget Anti-Alzheimer Agents Derived from the Antioxidant Lead CR-6” (J Med Chem, 2020)
The source made the active and inactive calls. The calls are words filed in the database; no cut-off is given here.

Experiments:
Beta-secretase 1 = Beta-secretase 1 (Homo sapiens, UniProt P56817); assay: Inhibition human BACE1 expressed in baculovirus expression system using Panvera peptide as substrate measured after 60 mins by fluorescence assay; conditions: read-out: IC50
Chain of Beta-secretase 1 (P56817 whole entry): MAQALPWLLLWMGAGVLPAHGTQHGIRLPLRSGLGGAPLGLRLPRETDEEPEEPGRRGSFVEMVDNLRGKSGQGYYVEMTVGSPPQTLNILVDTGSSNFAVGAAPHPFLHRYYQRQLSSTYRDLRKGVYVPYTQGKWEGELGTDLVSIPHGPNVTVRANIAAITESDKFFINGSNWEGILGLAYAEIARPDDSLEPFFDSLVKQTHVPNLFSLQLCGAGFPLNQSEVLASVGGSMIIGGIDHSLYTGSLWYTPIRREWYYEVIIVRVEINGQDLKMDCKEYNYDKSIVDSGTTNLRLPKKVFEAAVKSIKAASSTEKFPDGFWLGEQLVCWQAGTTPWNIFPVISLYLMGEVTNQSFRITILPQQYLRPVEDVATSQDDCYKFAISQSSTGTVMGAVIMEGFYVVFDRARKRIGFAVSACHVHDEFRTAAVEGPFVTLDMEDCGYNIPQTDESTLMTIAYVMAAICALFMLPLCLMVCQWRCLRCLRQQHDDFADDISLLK

[1] = Acute toxicity in C57BL6/J mouse assessed as tremor at 15 mg/kg, ip measured after 10 to 15 mins; type: organism-based; conditions: in vivo, time 10-15 min
[2] = Acute toxicity in C57BL6/J mouse assessed as reduction in locomotor activity at 15 mg/kg, ip measured after 10 to 15 mins; type: organism-based; conditions: in vivo, time 10-15 min
Mus musculus [3] = assay: Antialzheimer activity in APP/PS1 double mutant-transgenic C57BL6/J mouse model assessed as increase in Adam10 expression at 10 mg/kg/day, ip for 4 weeks followed by compound washout and measured after 24 hrs by Western blot analysis; type: functional, organism-based
[4] = Acute toxicity in C57BL6/J mouse at 5 to 10 mg/kg, ip measured up to 24 hrs; type: organism-based; conditions: in vivo, dose 5-10 mg/kg
Mus musculus [5] = assay: Antialzheimer activity in APP/PS1 double mutant-transgenic C57BL6/J mouse model assessed as reduction in soluble amyloid beta 40 level in cortex at 10 mg/kg/day, ip for 4 weeks followed by compound washout and measured after 24 hrs by ELISA; type: functional, organism-based
Mus musculus [6] = assay: Antialzheimer activity in APP/PS1 double mutant-transgenic C57BL6/J mouse model assessed as reduction in oxidized protein level at 10 mg/kg/day, ip for 4 weeks followed by compound washout and measured after 24 hrs by Western blot analysis; type: functional, organism-based
Acetylcholinesterase = Acetylcholinesterase (Homo sapiens, UniProt P22303)
Chain of Acetylcholinesterase (P22303 whole entry): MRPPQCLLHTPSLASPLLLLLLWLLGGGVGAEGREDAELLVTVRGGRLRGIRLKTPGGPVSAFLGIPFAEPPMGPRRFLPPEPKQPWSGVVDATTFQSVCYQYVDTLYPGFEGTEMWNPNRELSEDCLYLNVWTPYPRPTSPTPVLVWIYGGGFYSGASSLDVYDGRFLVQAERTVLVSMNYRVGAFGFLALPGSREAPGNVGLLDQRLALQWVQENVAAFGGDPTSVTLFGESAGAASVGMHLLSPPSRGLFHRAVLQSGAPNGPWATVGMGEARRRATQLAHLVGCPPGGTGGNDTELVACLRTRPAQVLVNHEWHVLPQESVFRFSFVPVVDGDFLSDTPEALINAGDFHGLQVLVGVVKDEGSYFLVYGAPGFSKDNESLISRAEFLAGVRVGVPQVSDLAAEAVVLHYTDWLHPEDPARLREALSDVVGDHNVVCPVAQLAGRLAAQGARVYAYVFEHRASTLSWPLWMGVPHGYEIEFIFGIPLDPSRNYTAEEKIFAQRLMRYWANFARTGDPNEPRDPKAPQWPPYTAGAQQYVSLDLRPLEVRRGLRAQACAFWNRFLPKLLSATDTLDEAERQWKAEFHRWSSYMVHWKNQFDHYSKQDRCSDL
Description: Inhibition of recombinant human AChE expressed in HEK293 cells using acetylthiocholine iodide as substrate preincubated for 15 mins followed by substrate addition by Ellman's method

Mus musculus [7] = assay: Antialzheimer activity in APP/PS1 double mutant-transgenic C57BL6/J mouse model assessed as reduction in Bace1 expression at 10 mg/kg/day, ip for 4 weeks followed by compound washout and measured after 24 hrs by Western blot analysis; type: functional, organism-based
Mus musculus [8] = assay: Antialzheimer activity in APP/PS1 double mutant-transgenic C57BL6/J mouse model assessed as increase in SOD2 level at 10 mg/kg/day, ip for 4 weeks followed by compound washout and measured after 24 hrs by double immunostaining assay; type: functional, organism-based
Cholinesterase = Cholinesterase (Homo sapiens, UniProt P06276)
Chain of Cholinesterase (P06276 whole entry): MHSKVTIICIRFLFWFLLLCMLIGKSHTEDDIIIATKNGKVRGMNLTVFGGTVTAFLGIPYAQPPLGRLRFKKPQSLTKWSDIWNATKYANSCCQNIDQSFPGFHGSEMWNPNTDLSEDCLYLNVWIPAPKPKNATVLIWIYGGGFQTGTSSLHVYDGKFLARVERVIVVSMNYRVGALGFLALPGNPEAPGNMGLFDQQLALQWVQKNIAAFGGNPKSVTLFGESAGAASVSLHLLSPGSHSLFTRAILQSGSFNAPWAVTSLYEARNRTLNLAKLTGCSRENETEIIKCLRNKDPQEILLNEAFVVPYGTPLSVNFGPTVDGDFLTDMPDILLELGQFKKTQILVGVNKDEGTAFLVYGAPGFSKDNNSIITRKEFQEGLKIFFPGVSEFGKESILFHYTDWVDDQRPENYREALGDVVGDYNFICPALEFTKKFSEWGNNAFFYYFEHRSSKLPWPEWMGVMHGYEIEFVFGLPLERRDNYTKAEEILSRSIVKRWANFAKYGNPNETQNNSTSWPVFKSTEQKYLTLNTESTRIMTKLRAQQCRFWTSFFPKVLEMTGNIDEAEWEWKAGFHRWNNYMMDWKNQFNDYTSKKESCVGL
Description: Inhibition of recombinant human BChE using butyrylthiocholine iodide as substrate preincubated for 15 mins followed by substrate addition by Ellman's method

Mus musculus [9] = assay: Antialzheimer activity in APP/PS1 double mutant-transgenic C57BL6/J mouse model assessed as reduction in Bace1 gene expression at 10 mg/kg/day, ip for 4 weeks followed by compound washout and measured after 24 hrs by qPCR analysis; type: functional, organism-based
Mus musculus [10] = assay: Antialzheimer activity in APP/PS1 double mutant-transgenic C57BL6/J mouse model assessed as increase in Adam10 gene expression at 10 mg/kg/day, ip for 4 weeks followed by compound washout and measured after 24 hrs by qPCR analysis; type: functional, organism-based
Mus musculus [11] = assay: Antialzheimer activity in APP/PS1 double mutant-transgenic C57BL6/J mouse model assessed as increase in Nrf2 level at 10 mg/kg/day, ip for 4 weeks followed by compound washout and measured after 24 hrs by Western blot analysis; type: functional, organism-based
[12] = Acute toxicity in C57BL6/J mouse assessed as ptosis at 15 mg/kg, ip measured after 10 to 15 mins; type: organism-based; conditions: in vivo, time 10-15 min
Mus musculus [13] = assay: Antialzheimer activity in APP/PS1 double mutant-transgenic C57BL6/J mouse model assessed as reduction in amyloid beta burden in cortex at 10 mg/kg/day, ip for 4 weeks followed by compound washout and measured after 24 hrs by hematoxylin staining based microscopic analysis; type: functional, organism-based
[14] = Acute toxicity in C57BL6/J mouse at 15 mg/kg, ip measured after 3 hrs; type: organism-based; conditions: in vivo
[15] = Acute toxicity in C57BL6/J mouse assessed as piloerection at 15 mg/kg, ip measured after 10 to 15 mins; type: organism-based; conditions: in vivo, time 10-15 min
Mus musculus [16] = assay: Antialzheimer activity in APP/PS1 double mutant-transgenic C57BL6/J mouse model assessed as increase in GPX1 level at 10 mg/kg/day, ip for 4 weeks followed by compound washout and measured after 24 hrs by Western blot analysis; type: functional, organism-based
Mus musculus [17] = assay: Antialzheimer activity in APP/PS1 double mutant-transgenic C57BL6/J mouse model assessed as reduction in soluble amyloid beta 42 level in cortex at 10 mg/kg/day, ip for 4 weeks followed by compound washout and measured after 24 hrs by ELISA; type: functional, organism-based
in vitro = conditions: PAMPA
Description: Permeability of compound in PBS/EtOH buffer (7:3) PAMPA-BBB assay

Mus musculus [18] = assay: Improvement in memory impairment in APP/PS1 double mutant-transgenic C57BL6/J mouse model assessed as […] at 10 mg/kg/day, ip for 4 weeks followed by compound washout by maze two-object recognition test; type: functional, organism-based

COc1cc2c(cc1OCc1ccccc1)CCC(C)(CC(=O)NCCCCCCCCNc1c3c(nc4cc(Cl)ccc14)CCCC3)O2 (configuration not stated)
IC50 (Beta-secretase 1): 8.31 µM | Activity [1]: Toxic | Activity [2]: Toxic | Activity (Mus musculus [3]): Active | Activity [4]: Non-Toxic | Activity (Mus musculus [5]): inactive | Activity (Mus musculus [6]): inactive | IC50 (Acetylcholinesterase): 0.0104 µM | Activity (Mus musculus [7]): inactive | Activity (Mus musculus [8]): inactive | IC50 (Cholinesterase): 0.1 µM | Activity (Mus musculus [9]): Active | Activity (Mus musculus [10]): Active | Activity (Mus musculus [11]): inactive | Activity [12]: Toxic | Activity (Mus musculus [13]): inactive | Activity [14]: Non-Toxic | Activity [15]: Toxic | Activity (Mus musculus [16]): inactive | Activity (Mus musculus [17]): inactive | Papp (in vitro): 12.3 ×10⁻⁶ cm/s | Activity (Mus musculus [18]): inactive
